In paper PMC7750294 (Journal of pharmaceutical sciences, 2020):
Where “and” joins values, the source holds several entries; their conditions need not be identical. Identical values can stand only once. Like-named read-outs stand apart in the source and are kept apart here.

Legend:
[1] = test system: Caco-2 cell monolayers; conditions: cited from earlier work; for Reference Papp,caco-2 (7.4:7.4): ref Simcyp library value
[2] = molecular target: T1, OATP1B1 (Homo sapiens, UniProt Q9Y6L6); experiment: Inhibition of OATP1B1-mediated [3H]-E217βG accumulation in HEK293-OATP1B1 cells; format: cell-based
T1 sequence (Q9Y6L6 1-691): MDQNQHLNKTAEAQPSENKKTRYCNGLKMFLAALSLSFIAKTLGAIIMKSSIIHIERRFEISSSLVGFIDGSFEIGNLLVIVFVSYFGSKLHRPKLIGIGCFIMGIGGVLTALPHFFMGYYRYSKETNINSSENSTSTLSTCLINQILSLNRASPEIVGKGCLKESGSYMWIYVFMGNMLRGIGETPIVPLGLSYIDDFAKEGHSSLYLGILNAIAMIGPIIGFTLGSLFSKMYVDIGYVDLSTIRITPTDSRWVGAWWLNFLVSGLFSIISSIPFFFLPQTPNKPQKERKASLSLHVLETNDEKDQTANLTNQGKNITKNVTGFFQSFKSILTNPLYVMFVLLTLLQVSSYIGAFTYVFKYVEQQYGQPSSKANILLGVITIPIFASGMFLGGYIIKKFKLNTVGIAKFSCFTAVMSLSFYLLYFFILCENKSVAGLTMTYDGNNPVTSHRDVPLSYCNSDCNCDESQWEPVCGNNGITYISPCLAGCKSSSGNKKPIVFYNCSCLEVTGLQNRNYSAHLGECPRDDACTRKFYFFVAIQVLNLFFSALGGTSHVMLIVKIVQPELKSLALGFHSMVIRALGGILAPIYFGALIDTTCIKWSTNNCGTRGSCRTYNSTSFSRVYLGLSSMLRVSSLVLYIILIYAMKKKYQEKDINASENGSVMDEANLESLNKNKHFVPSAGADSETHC

[3] = molecular target: T2, OATP1B3 (Homo sapiens, UniProt Q9NPD5); experiment: Inhibition of OATP1B3-mediated [3H]-CCK-8 accumulation in HEK293-OATP1B3 cells; format: cell-based
T2 sequence (Q9NPD5 1-702): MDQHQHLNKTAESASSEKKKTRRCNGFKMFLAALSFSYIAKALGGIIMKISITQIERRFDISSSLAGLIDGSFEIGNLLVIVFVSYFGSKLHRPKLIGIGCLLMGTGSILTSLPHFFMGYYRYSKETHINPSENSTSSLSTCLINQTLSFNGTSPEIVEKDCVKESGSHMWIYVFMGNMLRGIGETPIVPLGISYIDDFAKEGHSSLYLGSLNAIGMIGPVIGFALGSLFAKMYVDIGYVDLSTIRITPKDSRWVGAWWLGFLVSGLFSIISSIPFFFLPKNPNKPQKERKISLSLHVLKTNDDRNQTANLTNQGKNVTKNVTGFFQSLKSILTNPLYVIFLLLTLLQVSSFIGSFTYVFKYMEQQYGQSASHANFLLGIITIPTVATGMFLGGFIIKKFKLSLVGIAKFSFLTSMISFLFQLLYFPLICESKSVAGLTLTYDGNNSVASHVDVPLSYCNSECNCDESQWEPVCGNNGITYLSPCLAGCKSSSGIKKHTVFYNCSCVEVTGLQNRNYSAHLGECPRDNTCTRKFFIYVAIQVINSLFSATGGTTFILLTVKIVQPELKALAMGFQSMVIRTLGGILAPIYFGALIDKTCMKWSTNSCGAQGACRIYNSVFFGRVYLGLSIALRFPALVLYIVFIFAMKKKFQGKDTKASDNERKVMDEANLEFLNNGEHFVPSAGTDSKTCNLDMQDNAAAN

[4] = Estimation of Iin,max; set-up: species or system human; conditions: 960 mg; faFg = 1; Eq. 4
[5] = Vemurafenib PBPK model parameters; set-up: species or system human
[6] = cited from earlier work; for Aqueous solubility: highest/maximum aqueous solubility
[7] = cited from earlier work
[8] = molecular target: T1, OATP1B1; conditions: 10 μM vemurafenib, aqueous buffer; cited from earlier work
[9] = cited from earlier work; remark: listed apart in the source
[10] = molecular target: T2, OATP1B3; conditions: cited from earlier work
[11] = molecular target: T1, OATP1B1; conditions: read-out: Apparent Km of transport by OATP1B1; cited from earlier work
[12] = test system: P-gp; conditions: cited from earlier work
[13] = IC50,total against OATP1B1, 100% human plasma (pH 7.4), [3H]-E217βG 5 μM, 3 min, HEK293-OATP1B1
[14] = vemurafenib 150 μM in human plasma

## CN/C(=N/CCSCc1nc[nH]c1C)NC#N [cimetidine]
[1]
  Reference Papp,caco-2 (7.4:7.4): 4 10^−6 cm/s

## CO[C@H]1/C=C/O[C@@]2(C)Oc3c(C)c(O)c4c(O)c(c(/C=N/N5CCN(C)CC5)c(O)c4c3C2=O)NC(=O)/C(C)=C\C=C\[C@H](C)[C@H](O)[C@@H](C)[C@@H](O)[C@@H](C)[C@H](OC(C)=O)[C@@H]1C [rifampicin]
[2]; [13]
  IC50: 2.1 µM
[2]; read-out: Estimated IC50,unbound,OATP1B1, IC50,total 2.1 μM × fu,plasma 0.116
  IC50: 0.24 µM

## CNC(=C[N+](=O)[O-])NCCSCc1ccc(CN(C)C)o1 [ranitidine]
[1]
  Reference Papp,caco-2 (7.4:7.4): 1.2 10^−6 cm/s

## CCCS(=O)(=O)Nc1ccc(F)c(C(=O)c2c[nH]c3ncc(-c4ccc(Cl)cc4)cc23)c1F [vemurafenib]
[2]; [13]
  IC50: 175 µM
[2]; vemurafenib 0.78 μM in HBSS buffer (pH 7.4), protein-free, E217βG […], 2 min
  Effect on OATP1B1-mediated transport vs vehicle control: does not affect
[2]; [14]
  OATP1B1-mediated transport remaining: 60.2 % of control
[2]; vemurafenib 500 μM in 100% human plasma, E217βG 5 μM, 3 min
  OATP1B1-mediated [3H]-E217βG transport: 0.38 ± 0.1 fold of control
[3]; IC50,total against OATP1B3, 100% human plasma (pH 7.4), [3H]-CCK-8 1 μM, 3 min, HEK293-OATP1B3
  IC50: 231 µM
[3]; human, HEK293 cells over-expressing OATP1B3 (HEK293-OATP1B3), pH 7.4, probe [3H]-CCK-8 (1 μM), IC50,total against OATP1B3, 100% human plasma (pH 7.4), [3H]-CCK-8 1 μM, 3 min, HEK293-OATP1B3
  IC50 at 3 min: 232 ± 26 µM
[3]; vemurafenib 0.78 μM in HBSS buffer (pH 7.4), protein-free, CCK-8 1 μM, 3 min
  Effect on OATP1B3-mediated transport vs vehicle control: does not affect
[3]; [14]
  OATP1B3-mediated transport remaining: 72.1 % of control
[3]; vemurafenib 500 μM in 100% human plasma, CCK-8 1 μM, 3 min
  OATP1B3-mediated [3H]-CCK-8 transport: 0.13 ± 0.04 fold of control
[4]
  Iin,max (estimated total maximum plasma concentration at the inlet to the liver): 132 µM and 132.5 µM
[5]; human, oral, 960 mg
  Vd: 0.9 L/kg
[5]; set from 0.97% of oral dose recovered in urine as parent
  CLR (renal clearance): 0.01787 L/h
[6]; diprotic acid
  pKa (first): 7.9
  pKa (second): 11.1
[6]
  Aqueous solubility: 0.78 µM
[6]; listed as Vemurafenib
  Aqueous solubility: ~ 0.78 μM
[6]; neutral species octanol:buffer partition coefficient
  Log PO:W: 3
[1]; ranitidine as reference compound
  Passive permeability coefficient in Caco-2 cell monolayers: 2.9 10^−6 cm/s
[7]; 960 mg BID multiple dosing
  Time to steady state: 15 to 21 days
[7]; 960 mg BID
  AUC0–8 h accumulation, day 15 vs day 1: 23.2 ± 16.5 fold
[7]
  CLpo: 2.67 (53.5) L/h, CV%
  Median accumulation ratio: 7.36
  Oral dose recovered in urine as parent: 0.97%
  Time to steady state for most patients: ≤ 22 days
[7]; oral, population pharmacokinetic analysis
  ka, absorption rate constant: 0.19 h⁻¹
[8]
  Decrease of OATP1B1-mediated [3H]-E217βG transport: ~ 75% and 75%
[9]; [14C]-vemurafenib
  Blood-to-plasma ratio (RB): 0.58
[9]
  Protein bound in human plasma: > 99%
[9]; independent of concentration 0.5–100 μM
  Unbound fraction in human plasma: 0.0014
[10]
  Uptake in OATP1B3-overexpressing cells vs vehicle control cells: ~ 1.5 fold

## C[C@]12CC[C@@H]3c4ccc(O)cc4CC[C@H]3[C@@H]1CC[C@@H]2O[C@@H]1O[C@H](C(=O)O)[C@@H](O)[C@H](O)[C@H]1O [E217βG, estradiol 17 β-D-glucuronide]
[11]
  Km: ~8.3 µM
[9]
  fu (reported protein binding): 0.39

## C[C@H]1O[C@@H](O[C@H]2[C@@H](O)C[C@H](O[C@H]3[C@@H](O)C[C@H](O[C@H]4CC[C@@]5(C)[C@H](CC[C@@H]6[C@@H]5C[C@@H](O)[C@]5(C)[C@@H](C7=CC(=O)OC7)CC[C@]65O)C4)O[C@@H]3C)O[C@@H]2C)C[C@H](O)[C@@H]1O [digoxin]
[12]; single dose of digoxin alone
  Mean terminal half-life: 35.0 h
[12]; single dose of digoxin co-administered with vemurafenib
  Mean terminal half-life: 56.4 h

## Cholecystokinin 8 [CCK-8]
[10]
  Km: ~3.8 µM
